{"source": "PubChem BioAssay AID328", "about": "(DTP/NCI, 2004)", "system": "BDF1 mice, P388 leukemia ip, median survival T/C", "test": "NCI In Vivo Anticancer Drug Screen. Data for tumor model P388 Leukemia (intraperitoneal) in B6D2F1 (BDF1) mice", "conditions": "endpoint: median survival time, higher = longer survival", "summary_of_the_method": "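Compound-treated tumour-bearing mice were compared with vehicle-treated controls. Survival was recorded, and the value is the treated-group measurement divided by the control-group measurement (T/C).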", "key": {"[1]": {"conditions": "dose: 100.0 mg/kg/injection, schedule: Q04DX003 (ip), vehicle: saline with Tween-80"}, "[2]": {"conditions": "dose: 200.0 mg/kg/injection, schedule: Q01DX009 (ip), vehicle: saline with Tween-80"}, "[3]": {"conditions": "dose: 200.0 mg/kg/injection, schedule: Q04DX003 (ip), vehicle: saline with Tween-80"}, "[4]": {"conditions": "dose: 100.0 mg/kg/injection, schedule: Q01DX009 (ip), vehicle: saline with Tween-80"}, "[5]": {"conditions": "dose: 400.0 mg/kg/injection, schedule: Q04DX003 (ip), vehicle: saline with Tween-80"}}, "note": "Values joined by “and” are separate entries in the source; they are usually repeats but may differ in a detail not shown here. Equal entries are not always repeated. Toxic doses and inconclusive results are not listed.", "data": [{"molecule": "C1CN1P1(N2CC2)=NP(N2CC2)(N2CC2)=NP(N2CC2)(N2CC2)=NP(N2CC2)(N2CC2)=N1", "values": [{"measurement": "T/C", "setting": "dose: 0.27 mg/kg/injection, schedule: Q01DX009 (ip), vehicle: saline", "result": "116 % of control"}, {"measurement": "T/C", "setting": "dose: 0.4 mg/kg/injection, schedule: Q01DX009 (ip), vehicle: saline", "result": "112 % of control"}, {"measurement": "T/C", "setting": "dose: 0.62 mg/kg/injection, schedule: Q01DX009 (ip), vehicle: saline", "result": "172 % of control"}, {"measurement": "T/C", "setting": "dose: 0.63 mg/kg/injection, schedule: Q04DX003 (ip), vehicle: saline", "result": "113 % of control"}, {"measurement": "T/C", "setting": "dose: 1.25 mg/kg/injection, schedule: Q01DX009 (ip), vehicle: saline", "result": "159 % of control"}, {"measurement": "T/C", "setting": "dose: 1.9 mg/kg/injection, schedule: Q04DX003 (ip), vehicle: saline", "result": "154 % of control"}, {"measurement": "T/C", "setting": "dose: 2.5 mg/kg/injection, schedule: Q01DX009 (ip), vehicle: saline", "result": "200 % of control"}, {"measurement": "T/C", "setting": "dose: 2.5 mg/kg/injection, schedule: Q04DX003 (ip), vehicle: saline", "result": "166 % of control"}, {"measurement": "T/C", "setting": "dose: 2.9 mg/kg/injection, schedule: Q04DX003 (ip), vehicle: saline", "result": "168 % of control"}, {"measurement": "T/C", "setting": "dose: 4.4 mg/kg/injection, schedule: Q04DX003 (ip), vehicle: saline", "result": "186 % of control"}, {"measurement": "T/C", "setting": "dose: 5.0 mg/kg/injection, schedule: Q04DX003 (ip), vehicle: saline", "result": "219 % of control"}, {"measurement": "T/C", "setting": "dose: 6.6 mg/kg/injection, schedule: Q01DX009 (ip), vehicle: saline", "result": "240 % of control"}, {"measurement": "T/C", "setting": "dose: 10.0 mg/kg/injection, schedule: Q04DX003 (ip), vehicle: saline", "result": "225 % of control and 223 % of control"}, {"measurement": "T/C", "setting": "dose: 13.2 mg/kg/injection, schedule: Q04DX003 (ip), vehicle: saline", "result": "100 % of control"}, {"measurement": "T/C", "setting": "dose: 13.3 mg/kg/injection, schedule: Q04DX003 (ip), vehicle: saline", "result": "223 % of control"}, {"measurement": "T/C", "setting": "dose: 15.0 mg/kg/injection, schedule: Q01DX009 (ip), vehicle: saline", "result": "155 % of control"}, {"measurement": "T/C", "setting": "dose: 30.0 mg/kg/injection, schedule: Q04DX003 (ip), vehicle: saline", "result": "285 % of control"}, {"measurement": "T/C", "setting": "dose: 40.0 mg/kg/injection, schedule: Q04DX003 (ip), vehicle: saline", "result": "105 % of control"}]}, {"molecule": "CCN(CC)CCCC(C)NC(=O)c1ccc(Cl)nc1", "note": "(centres undefined)", "values": [{"measurement": "T/C", "setting": "dose: 37.5 mg/kg/injection, schedule: Q01DX009 (ip), vehicle: saline with Tween-80", "result": "107 % of control"}, {"measurement": "T/C", "setting": "dose: 50.0 mg/kg/injection, schedule: Q01DX009 (ip), vehicle: saline with Tween-80", "result": "113 % of control"}, {"measurement": "T/C", "setting": "dose: 50.0 mg/kg/injection, schedule: Q04DX003 (ip), vehicle: saline with Tween-80", "result": "103 % of control"}, {"measurement": "T/C", "setting": "dose: 75.0 mg/kg/injection, schedule: Q01DX009 (ip), vehicle: saline with Tween-80", "result": "96 % of control"}, {"measurement": "T/C", "setting": "[1]", "result": "107 % of control"}, {"measurement": "T/C", "setting": "dose: 150.0 mg/kg/injection, schedule: Q01DX009 (ip), vehicle: saline with Tween-80", "result": "117 % of control"}, {"measurement": "T/C", "setting": "[2]", "result": "97 % of control"}, {"measurement": "T/C", "setting": "[3]", "result": "110 % of control"}]}, {"molecule": "[O-][n+]1c(-c2ccccc2)cn2ccccc21", "values": [{"measurement": "T/C", "setting": "dose: 100.0 mg/kg/injection, schedule: Q01DX001 (ip), vehicle: saline with Tween-80", "result": "105 % of control"}, {"measurement": "T/C", "setting": "dose: 200.0 mg/kg/injection, schedule: Q01DX001 (ip), vehicle: saline with Tween-80", "result": "98 % of control"}]}, {"molecule": "CCCCCCSc1ncnc2nc[nH]c12", "values": [{"measurement": "T/C", "setting": "[4]", "result": "109 % of control"}, {"measurement": "T/C", "setting": "[1]", "result": "100 % of control"}, {"measurement": "T/C", "setting": "[2]", "result": "100 % of control"}, {"measurement": "T/C", "setting": "[3]", "result": "100 % of control"}, {"measurement": "T/C", "setting": "[5]", "result": "95 % of control"}]}, {"molecule": "O=C(NC(Cc1ccccc1)C(=O)O)OCc1ccccc1", "note": "(centres undefined)", "values": [{"measurement": "T/C", "setting": "[4]", "result": "120 % of control"}, {"measurement": "T/C", "setting": "[1]", "result": "92 % of control"}, {"measurement": "T/C", "setting": "[3]", "result": "100 % of control"}, {"measurement": "T/C", "setting": "[5]", "result": "107 % of control"}]}, {"molecule": "COc1cc(C=Nc2ccc(-c3nc(C)sc3C)cc2)ccc1N(CCCl)CCCl", "values": [{"measurement": "T/C", "setting": "dose: 16.5 mg/kg/injection, schedule: Q04DX003 (ip), vehicle: Klucel (hydroxypropylcellulose) (HPC)", "result": "300 % of control"}, {"measurement": "T/C", "setting": "dose: 25.0 mg/kg/injection, schedule: Q04DX003 (ip), vehicle: Klucel (hydroxypropylcellulose) (HPC)", "result": "231 % of control and 300 % of control"}, {"measurement": "T/C", "setting": "dose: 37.5 mg/kg/injection, schedule: Q04DX003 (ip), vehicle: Klucel (hydroxypropylcellulose) (HPC)", "result": "300 % of control"}]}, {"molecule": "CC(C)=CCC/C(C)=C/CNc1ncnc2nc[nH]c12", "values": [{"measurement": "T/C", "setting": "[1]", "result": "100 % of control"}, {"measurement": "T/C", "setting": "[3]", "result": "90 % of control"}, {"measurement": "T/C", "setting": "[5]", "result": "109 % of control and 111 % of control"}]}, {"molecule": "O=C(O)C1CC=CCCC1", "note": "(centres undefined)", "values": [{"measurement": "T/C", "setting": "dose: 100.0 mg/kg/injection, schedule: Q01DX009 (ip), vehicle: Klucel (hydroxypropylcellulose) (HPC)", "result": "95 % of control"}, {"measurement": "T/C", "setting": "dose: 100.0 mg/kg/injection, schedule: Q04DX003 (ip), vehicle: Klucel (hydroxypropylcellulose) (HPC)", "result": "91 % of control"}, {"measurement": "T/C", "setting": "dose: 200.0 mg/kg/injection, schedule: Q01DX009 (ip), vehicle: Klucel (hydroxypropylcellulose) (HPC)", "result": "104 % of control"}, {"measurement": "T/C", "setting": "dose: 200.0 mg/kg/injection, schedule: Q04DX003 (ip), vehicle: Klucel (hydroxypropylcellulose) (HPC)", "result": "95 % of control"}, {"measurement": "T/C", "setting": "dose: 400.0 mg/kg/injection, schedule: Q01DX009 (ip), vehicle: Klucel (hydroxypropylcellulose) (HPC)", "result": "104 % of control"}, {"measurement": "T/C", "setting": "dose: 400.0 mg/kg/injection, schedule: Q04DX003 (ip), vehicle: Klucel (hydroxypropylcellulose) (HPC)", "result": "91 % of control"}]}, {"molecule": "Cc1cnc(C#N)c(-n2ccnc2)n1", "values": [{"measurement": "T/C", "setting": "dose: 12.5 mg/kg/injection, schedule: Q01DX009 (ip), vehicle: water", "result": "92 % of control"}, {"measurement": "T/C", "setting": "dose: 25.0 mg/kg/injection, schedule: Q01DX009 (ip), vehicle: water", "result": "100 % of control"}, {"measurement": "T/C", "setting": "dose: 50.0 mg/kg/injection, schedule: Q01DX009 (ip), vehicle: water", "result": "95 % of control"}, {"measurement": "T/C", "setting": "dose: 100.0 mg/kg/injection, schedule: Q01DX009 (ip), vehicle: water", "result": "100 % of control"}, {"measurement": "T/C", "setting": "dose: 200.0 mg/kg/injection, schedule: Q01DX009 (ip), vehicle: water", "result": "101 % of control"}]}]}
